Experiments:
[1] = In vivo stability in blood of living rats (radiometabolites); parameters: species or system rat
Procedure: For the determination of radioligand stability in vivo and detection of radiometabolites the respective radiotracer (15 MBq) was administered intravenous to male Sprague Dawley rats (200–250 g) under isoflurane anesthesia. Blood samples were drawn intravenous after 5, 15 and 30 min and centrifuged for 5 min at 2000 rpm in heparin-coated vials. An aliquot of 50 µL was taken from the supernatant and added to an equal volume of water (10% TFA). The protein precipitate was centrifuged off for 5 min at 25,000 rpm and an aliquot of the supernatant was fractioned with HPLC (Chromolith RP-18e, 100 mm × 4.6 mm, 4 mL/min, solvent A: water (0.1% TFA), solvent B: acetonitrile (0.1% TFA), gradient A/B: 90:10 to 0:100 in 15 min, λ = 214 nm). The fractions were then analyzed in the gamma-counter. To identify the fractions containing the intact radioligand, the retention time and fractioning of the respective tracer was previously assessed. Two independent experiments were performed.

[2] = Binding to proteins in human plasma in vitro; assay type: in vitro ADME; settings: human vs rat plasma
Procedure: The free fraction in vitro was determined by adding the respective radioligand (100 kBq) to plasma or CSF (200 µL) and mixed vigorously. Aliquots of 20–50 µL were transferred to size exclusion chromatography columns (MicroSpin G-50; GE Healthcare GmbH, Solingen, Germany, centrifuged for two min at 2000 rpm, and the radioactivity in the filtrate and in the resin were measured in the gamma-counter. Three independent experiments were performed in triplicates.

[3] = parameters: method as in PMID 24339325, PMID 26707848; settings: experimental, pH 7.4, n = 6, previously reported; cited from earlier work
[4] = parameters: method as in PMID 24339325, PMID 26707848; settings: over 120 min, previously reported; cited from earlier work
dopamine D3 receptor = test: Dynamic small-animal PET recordings; assay type: in vivo; settings: rat
Procedure: Small-animal PET imaging studies were conducted with male Sprague Dawleys rats (250–300 g) on a Inveon microPET scanner (Siemens Healthcare, Erlangen, Germany) under isoflurane (3%) anesthesia. After intravenous injection of [^18F]2b (10–15 MBq), dynamic emission recordings consisting of 13 frames of duration increasing from 30 s to 10 min were acquired to a total of 60 min. For displacement studies BP897 (1 mg/kg) was administered 30 min prior to radioligand injection. Dynamic emission images were corrected for attenuation and decay, and reconstructed by the iterative maximum a posteriori estimation, using software installed in the Inveon PET for dead time and random correction. The dynamic PET scan was then evaluated using the software Amide. The regions of interest were evaluated voxel based and the mean activity in %ID/g of each frame calculated.

D3 receptor [5] = settings: cited from earlier work
P-gp = biological target: T1, P-gp (Homo sapiens, UniProt P08183); test: P-gp inhibition assay (cellular uptake) in EA.hy926 cells; assay type: cell-based
T1 construct: endogenous in cells; host or cells: Caco-2
Procedure: EA.hy926 cells were seeded in culture medium at confluency the day prior to experiment or in case of the Caco-2 cells two days prior to experiment in 24-multiwell plates (Greiner Bio-One International GmbH, Kremsmünster, Austria). On the day of the experiment the culture medium was removed and the cells were washed once with PBS (500 µL). Culture medium supplemented with cyclosporine-A (5 µM for EA.hy926 and 10 µM for Caco-2) was added and the cells were incubated at 37 °C for 30 min. Afterwards 1 MBq of [^18F]2b was added to each well and incubated for further 30, 60 and 90 min. After incubation cells were washed with ice cold PBS (500 µL) and lysated with 0.1 M NaOH. The medium and lysates were analysed in the gamma-counter. To identify cyclosporine-A induced accumulation the experiment was also performed using culture medium lacking cyclosporine-A. As positive control the experiment was performed with ^99mTc-MIBI (100 kBq/well), a known P-gp substrate. To determine the lowermost concentration with which a maximum effect was obtained, cyclosporine-A was applied in a range of 0–50 µM and observed in a time frame of 30–120 min for both cell lines.

D3 receptor [6] = biological target: T2, D3 receptor (Rattus norvegicus, UniProt P19020); test: In vitro autoradiography of coronal rat brain sections; assay type: binding; settings: displacement with BP897
T2 construct: In vitro autoradiography of coronal rat brain sections after incubation with the respective radioligand; from tissue; host or cells: coronal brain cryosections (20 µm) of male Sprague Dawley rats
Procedure: Male Sprague Dawley rats (200–250 g) were sacrificed by decapitation under deep isoflurane anesthesia and brains were removed and frozen in cooled hexane at −70 °C. Coronal brain sections (20 µm) were cut on a cryostat microtome (HM550, Microm-Thermo Fisher Scientific, Walldorf, Germany) and thaw-mounted on covered glass slides (Histobond®, Marienfeld, Lauda Königshofen, Germany). The thaw mounted sections were stored at −20 °C up to 14 days.
The cryostat sections were pre-incubated for 15 min in incubation buffer (50 mM Tris-HCl, 40 mM NaCl, pH 7.4) at room temperature. The sections were then placed in incubation buffer containing 5 MBq of the respective tracer. For displacement studies BP897 (50 nM or 1 µM) was added. The sections were incubated at room temperature for 45 min and afterwards washed in ice cold incubation buffer for 3 × 5 min. Subsequently, they were dipped in water and after drying placed on a phosphor imaging screen (Fujitsu, Berlin, Germany) over night. The screens were analyzed with a DUERR Medical HD-CR 35 Bio (Raytest, Straubenhardt, Germany) and evaluated using the software AIDA image analyzer (Raytest). For anatomical identification of brain regions, the sections were compared with figures in the rat brain atlas.

T1 sequence (P08183 whole entry): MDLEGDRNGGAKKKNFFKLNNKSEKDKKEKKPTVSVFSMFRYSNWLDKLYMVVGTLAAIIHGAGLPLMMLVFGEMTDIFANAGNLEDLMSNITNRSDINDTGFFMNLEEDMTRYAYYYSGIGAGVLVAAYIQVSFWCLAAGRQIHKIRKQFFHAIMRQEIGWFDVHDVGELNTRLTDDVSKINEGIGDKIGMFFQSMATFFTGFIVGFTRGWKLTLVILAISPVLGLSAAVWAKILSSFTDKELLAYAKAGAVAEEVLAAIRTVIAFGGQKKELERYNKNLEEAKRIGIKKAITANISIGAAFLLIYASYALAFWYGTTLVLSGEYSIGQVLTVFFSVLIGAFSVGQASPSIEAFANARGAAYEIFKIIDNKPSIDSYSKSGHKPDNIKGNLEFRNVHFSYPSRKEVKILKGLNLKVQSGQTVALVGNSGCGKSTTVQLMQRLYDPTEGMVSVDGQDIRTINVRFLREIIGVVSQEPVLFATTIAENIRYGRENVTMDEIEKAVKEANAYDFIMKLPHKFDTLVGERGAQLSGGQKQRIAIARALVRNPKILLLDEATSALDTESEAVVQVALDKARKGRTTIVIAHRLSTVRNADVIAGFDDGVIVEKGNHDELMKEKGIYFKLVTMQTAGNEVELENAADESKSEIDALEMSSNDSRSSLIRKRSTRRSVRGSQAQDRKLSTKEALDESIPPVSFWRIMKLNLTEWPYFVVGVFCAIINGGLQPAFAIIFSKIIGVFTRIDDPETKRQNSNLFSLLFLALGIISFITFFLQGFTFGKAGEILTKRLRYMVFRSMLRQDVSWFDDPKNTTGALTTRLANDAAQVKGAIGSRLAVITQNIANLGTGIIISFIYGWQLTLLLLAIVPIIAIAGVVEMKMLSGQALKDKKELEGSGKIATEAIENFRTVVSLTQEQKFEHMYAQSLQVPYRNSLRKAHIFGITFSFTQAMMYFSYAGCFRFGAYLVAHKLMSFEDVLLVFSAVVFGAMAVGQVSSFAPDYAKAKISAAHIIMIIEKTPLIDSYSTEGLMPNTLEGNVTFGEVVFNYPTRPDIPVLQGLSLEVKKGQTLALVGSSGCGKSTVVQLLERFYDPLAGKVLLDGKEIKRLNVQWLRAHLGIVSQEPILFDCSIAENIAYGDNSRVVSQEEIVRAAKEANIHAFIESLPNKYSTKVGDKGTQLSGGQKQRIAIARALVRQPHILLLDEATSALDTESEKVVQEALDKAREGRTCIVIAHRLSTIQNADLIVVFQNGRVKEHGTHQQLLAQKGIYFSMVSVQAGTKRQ
T2 sequence (P19020 whole entry): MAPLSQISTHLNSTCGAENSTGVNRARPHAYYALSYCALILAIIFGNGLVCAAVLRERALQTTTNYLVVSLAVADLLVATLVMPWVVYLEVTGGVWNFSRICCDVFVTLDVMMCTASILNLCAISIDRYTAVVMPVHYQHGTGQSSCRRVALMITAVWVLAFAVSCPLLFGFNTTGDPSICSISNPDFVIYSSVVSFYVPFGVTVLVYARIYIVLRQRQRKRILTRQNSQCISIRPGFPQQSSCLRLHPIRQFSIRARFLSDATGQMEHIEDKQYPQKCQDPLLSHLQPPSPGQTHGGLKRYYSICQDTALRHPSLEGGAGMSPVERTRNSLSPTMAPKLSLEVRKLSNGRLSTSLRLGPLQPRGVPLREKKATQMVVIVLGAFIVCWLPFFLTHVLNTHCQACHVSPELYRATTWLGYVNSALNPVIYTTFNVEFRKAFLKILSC

Question: Which results are given for `COc1ccccc1N1CCN(CCCCNC(=O)/N=N/c2ccc([18F])cc2)CC1` [[^18F]2b]?
Answer: intact tracer in rat plasma ([1]; 5 min after i.v. injection): 49%; intact tracer in rat plasma ([1]; 30 min after i.v. injection): 37%; binding to human plasma higher than in rat plasma [2]: 20%–30%; Log D7.4 [3]: 2.10 ± 0.10; decomposition in human serum [4]: no decomposition was observed; uptake in the third and lateral ventricle (dopamine D3 receptor): approximately 0.25 %ID/g; uptake in the pituitary gland (dopamine D3 receptor; 30 min p.i.): 0.8 %ID/g; blocking of fourth ventricle uptake with BP897 (dopamine D3 receptor; BP897 1 mg/kg): 50%; decrease of initial and mean pituitary gland uptake by blocking with BP897 (dopamine D3 receptor; BP897 1 mg/kg): 35%; uptake in the pituitary gland (dopamine D3 receptor; after approximately 5 min): 0.94 %ID/g; maximum uptake in the cerebral matter (dopamine D3 receptor; at 65 s post intravenous injection): 0.14 %ID/g; uptake in the pituitary gland (dopamine D3 receptor; end of the recording): 0.76 %ID/g; uptake in the fourth ventricle (dopamine D3 receptor; initial uptake, constant over the 60 min of recording): 0.4 %ID/g; uptake in the cerebral matter after wash-out (dopamine D3 receptor; over the 60 min of recording): 0.07 %ID/g; Ki (D3 receptor [5]): 3.5 nM; percentage inside the cells (P-gp): 5%; influence of cyclosporin-A on cellular uptake (P-gp; with vs without cyclosporin-A): did not increase the uptake; binding pattern in rat brain sections (D3 receptor [6]): D3 specific binding was visible

Reference: publication PMC6272905, “In Vitro and In Vivo Characterization of Selected Fluorine-18 Labeled Radioligands for PET Imaging of the Dopamine D3 Receptor” (Molecules, 2016)
